Five molecules from patent publication US11766447B2, “3′3′-cyclic dinucleotide analogue comprising a cyclopentanyl modified nucleotide as sting modulator” (INSTITUTE OF ORGANIC CHEMISTRY AND BIOCHEMISTRY ASCR, V.V.I., priority 2019, dated 2023) can be followed below.

In assay [1] the target is T1, WT STING (Homo sapiens, UniProt Q86WV6, H232R). Nature of the assay: Digitonin assay using 293T wtSTING-FL reporter cells. In kind it is cell-based. Also on record: host or cells: 293T (ATCC CRL-3216), stably transfected, with 4xISRE firefly luciferase reporter. The conditions noted are these: 293T wtSTING-FL cells, ISRE firefly luciferase; compounds in Digitonin buffer 30 minutes, then 5 hours; 8-point curve.
Target sequence in this assay (Q86WV6 whole entry H232R): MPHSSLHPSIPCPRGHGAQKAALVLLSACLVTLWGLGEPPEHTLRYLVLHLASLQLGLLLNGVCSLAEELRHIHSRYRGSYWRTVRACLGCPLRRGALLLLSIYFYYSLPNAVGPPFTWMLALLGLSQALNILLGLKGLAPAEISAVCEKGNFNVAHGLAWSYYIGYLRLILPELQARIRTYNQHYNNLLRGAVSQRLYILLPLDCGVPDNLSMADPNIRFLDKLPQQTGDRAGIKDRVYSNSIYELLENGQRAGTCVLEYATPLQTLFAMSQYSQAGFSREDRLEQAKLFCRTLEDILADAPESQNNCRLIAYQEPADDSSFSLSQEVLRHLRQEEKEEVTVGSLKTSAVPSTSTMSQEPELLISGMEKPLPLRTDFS

In assay [2] the target is T1, WT STING. Nature of the assay: Differential scanning fluorimetry (DSF) with WT STING. The class given is binding. Also on record: 8xHis (N, cleaved yes); SUMO (N, cleaved yes); made in house; host or cells: E. coli Rosetta-gami B (DE3). As to conditions: thermal shift vs apoprotein; 150 μM CDN; truncated human WT STING 0.1 mg/ml. The procedure, abridged:
(§1)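 […] STING proteins, alone or with CDNs, in triplicate, thermally denatured on a real-time PCR cycler. Denaturing temperatures taken from first-derivative curves; shift = mean Tm of STING–CDN complex minus mean Tm of apoprotein.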
For orientation: DSF heats the sample and reads unfolding from a dye or from intrinsic fluorescence.
Target sequence in this assay (Q86WV6 140-343 H232R): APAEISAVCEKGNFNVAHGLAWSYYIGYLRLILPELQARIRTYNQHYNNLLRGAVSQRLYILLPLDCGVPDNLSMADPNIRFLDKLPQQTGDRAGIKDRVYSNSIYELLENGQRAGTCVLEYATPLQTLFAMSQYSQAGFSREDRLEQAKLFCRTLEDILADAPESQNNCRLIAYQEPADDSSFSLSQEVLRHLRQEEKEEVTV

For assay [3], the target named is T2, AQ STING (G230A-R293Q) (Homo sapiens, UniProt Q86WV6, G230A/H232R/R293Q).
T2 construct: 8xHis (N, cleaved yes); SUMO (N, cleaved yes); made in house; host or cells: E. coli Rosetta-gami B (DE3)
Put plainly: Differential scanning fluorimetry (DSF) with AQ STING. The class given is binding. The conditions noted are these: thermal shift vs apoprotein; 150 μM CDN; truncated human AQ STING 0.1 mg/ml. The procedure, abridged: as §1

T2 sequence (Q86WV6 140-343 G230A/H232R/R293Q): as the sequence (Q86WV6 140-343 H232R) above, with G91A, R154Q counted along it

A word on the EC50: it is the midpoint of the concentration-response curve. Usually ΔTm stands for the shift of the melting midpoint relative to a reference. For `Nc1ncnc2c1ncn2[C@H]1CC2OP(=O)(O)OC[C@H]3O[C@@H](n4cnc5c(N)ncnc54)CC3OP(=O)(O)OC[C@H]2C1` (stereo partly drawn) [Compound 126, (2R,3aS,7aR,9R,10aS,14aR)-2,9-bis(6-amino-9H-purin-9-yl)-5,12-dihydroxydecahydro-2H-cyclopenta[d]furo[3,2-j][1,3,7,9]tetraoxa[2,8]diphosphacyclododecine 5,12-dioxide], in assay [1], the EC50 came to 1800 nM. Further, the ΔTm at 150 µM in assay [2] came to 1.1 °C; in assay [3] it was 7.5 °C.
As to `Nc1ncnc2c1ncn2[C@@H]1C[C@@H]2COP(=O)(O)O[C@H]3[C@@H](F)[C@H](n4cnc5c(N)ncnc54)O[C@@H]3COP(=O)(O)O[C@H]2[C@@H]1F` [Compound 127, (1R,6R,8R,9R,10R,15R,17R,18R)-8,17-bis(6-amino-9H-purin-9-yl)-9,18-difluoro-3,12-dihydroxy-2,4,7,11,13-pentaoxa-3λ^5,12λ^5-diphosphatricyclo[13.3.0.0^6,10]octadecane-3,12-dione], the EC50 in assay [1] was determined as 100 nM. Also, the ΔTm at 150 µM stood at 2.6 °C in assay [2] and 7.9 °C in assay [3].
`Nc1nc2c(ncn2[C@@H]2O[C@@H]3COP(=O)(O)O[C@@H]4[C@@H](COP(=O)(O)O[C@H]3[C@H]2F)C[C@@H](n2cnc3c(N)ncnc32)[C@@H]4F)c(=O)[nH]1` [Compound 131, (1R,6R,8R,9R,10R,15R,17R,18S)-8-(2-amino-6-oxo-6,9-dihydro-1H-purin-9-yl)-17-(6-amino-9H-purin-9-yl)-9,18-difluoro-3,12-dihydroxy-2,4,7,11,13-pentaoxa-3λ^5,12λ^5-diphosphatricyclo[13.3.0.0^6,10]octadecane-3,12-dione]: the EC50 in assay [1] worked out at 10 nM. Besides, the figures for the ΔTm at 150 µM in assay [2] and in assay [3] were 13.4 °C and 21.4 °C, respectively.
The like results for `Nc1ncnc2c1ncn2[C@@H]1C[C@@H]2COP(=O)(O)OC3C(O)[C@H](n4cnc5c(N)ncnc54)C[C@@H]3COP(=O)(O)OC2C1O` (stereo partly drawn) [Compound 133, (2R,3S,3aR,7aR,9R,10S,10aR,14aR)-2,9-bis(6-amino-9H-purin-9-yl)-3,5,10,12-tetrahydroxydodecahydrodicyclopenta[d,j][1,3,7,9]tetraoxa[2,8]-diphosphacyclododecine 5,12-dioxide] were, in that order, 1200 nM, 0.6 °C and 4.4 °C.
Take `Nc1ncnc2c1ncn2[C@@H]1C[C@@H]2COP(=O)(O)O[C@H]3[C@@H](F)[C@H](n4cnc5c(N)ncnc54)O[C@@H]3COP(=O)(O)O[C@H]2[C@H]1O` [Compound 134, (1R,6R,8R,9R,10R,15R,17R,18S)-8,17-bis(6-amino-9H-purin-9-yl)-9-fluoro-3,12,18-trihydroxy-2,4,7,11,13-pentaoxa-3λ^5,12λ^5-diphosphatricyclo[13.3.0.0^6,10]octadecane-3,12-dione]: in assay [1], the EC50 was 20 nM. In addition, the ΔTm at 150 µM in assay [2] was found to be 6.4 °C; in assay [3], 13.2 °C.
